In publication PMC8252455, “Prediction of a clinically effective dose of THY1773, a novel V 1B receptor antagonist, based on preclinical data” (Biopharmaceutics & Drug Disposition, 2021):
Values joined by “and” are separate entries in the source; they are usually repeats but may differ in a detail not shown here. Equal entries are not always repeated.

Assays:
[1] = PK and urinary excretion in rats; type: in vivo, rat
Description: (§1) The PK and urinary excretion of THY1773 in rats (1 mg/kg) and dogs (0.5 mg/kg) under fasted conditions were evaluated following intravenous or oral administration of THY1773. THY1773 was dissolved in 10% (vol/vol) hydroxypropyl‐β‐cyclodextrin at pH 4 for intravenous administration, or suspended in 0.5% (wt/vol) methyl cellulose 400 for oral administration. After a single intravenous or oral administration of THY1773, blood samples were collected into tubes containing EDTA‐2K as an anticoagulant. The scheduled time points were predose (dog only), 5 (intravenous only), 15, 30 min, 1, 2, 4, 8, 12, and 24 h postdose. Plasma was separated by centrifugation. Urine samples were collected into bottles set on ice for 24 h after intravenous administration of THY1773. Plasma and urine samples were treated with 4 volumes of acetonitrile/methanol (9:1, vol/vol) containing the IS. After centrifugation (3639 × g, 4°C, 10 min) to remove precipitated proteins, the supernatant was subjected to LC‐MS/MS analysis. The distributions of THY1773 into brain and pituitary gland in rats were investigated after a single oral administration of THY1773 (1 mg/kg). Blood was collected from the tail vein into tubes containing EDTA‐2K at 1 h after a single oral administration of THY1773, and the plasma was separated by centrifugation (12000 × g, 4°C, 3 min). After blood collection, the brain and pituitary gland were excised followed by homogenization with approximately 4 volumes of distilled water. Plasma, brain, and pituitary samples were treated with 4 volumes of acetonitrile/methanol (9:1, vol/vol) containing the IS and centrifuged (3639 × g, 4°C, 10 min). Aliquots of the supernatant were subjected to LC‐MS/MS analysis.
(§2) The plasma concentration–time profiles of THY1773 were analyzed by a non‐compartmental analysis with PK analysis software Phoenix WinNonlin® (version 6.1; Certara), and the PK parameters were calculated. The fraction excreted in urine was calculated by dividing the amount of THY1773 excreted in urine by the administered dose.

depressive-like behavior = tested on: depressive-like behavior; design: method as in Kamiya et al., 2020; conditions: ref Kamiya et al., 2020; cited from earlier work
[2] = Phase 1 single ascending dose study of TS-121 capsules; type: in vivo, human
Description: as §2
A first‐in‐human, randomized, double‐blind, placebo‐controlled, adaptive, single‐ascending dose study was conducted to evaluate the safety, tolerability, and PK of single oral doses of TS‐121 capsules in the United States. This study was conducted in accordance with the ethical principles of the Declaration of Helsinki, International Council for Harmonization Good Clinical Practice Guidelines, and the United States Food and Drug Administration Code of Federal Regulations. The study was approved by an institutional ethical review board. All subjects provided written informed consent before participating in the study. Sixty‐eight healthy male or female volunteers were enrolled and received a single oral dose of either TS‐121 capsules (0.5, 2.5, 4, 8, 15, 30, or 50 mg as THY1773/day) or placebo in a 3:1 ratio in a fasted state.
Blood samples were collected at predose and 0.25, 0.5, 0.75, 1, 1.5, 2, 3, 4, 6, 8, 10, 12, 24, 36, and 48 h postdose. Urine samples were collected before dosing and at the following time intervals after dosing: 0–6, 6–12, 12–24, 24–36, and 36–48 h. THY1773 plasma and urine concentrations were determined by validated LC‐MS/MS methods. PK parameters were evaluated following the method as described in Section 2.5 PK analysis.

[3] = Distribution into brain and pituitary gland in rats; type: in vivo, rat; conditions: 1 h after oral 1 mg/kg
Description: as §1, with “After blood collection, the brain and pituitary gland were excised followed by homogenization with approximately 4 volumes of distilled water. Plasma, brain, and pituitary samples were treated with 4 volumes of acetonitrile/methanol (9:1, vol/vol) containing the IS and centrifuged (3639 × g, 4°C, 10 min). Aliquots of the supernatant were subjected to LC‐MS/MS analysis.” left out

[4] = Blood-to-plasma ratio in human whole blood; type: in vitro ADME; conditions: 1 μmol/L
Description: (§3) The blood‐to‐plasma ratios of THY1773 were analyzed using pooled fresh whole blood (anticoagulant: EDTA‐2K) and control plasma separated from fresh whole blood in parallel from rats, dogs, and humans. Whole blood and control plasma containing 1 μmol/L THY1773 were incubated at 37°C for 30 min in a shaking water bath. The incubated whole blood was centrifuged at 2000 × g for 10 min at 4°C to obtain plasma. An aliquot of each plasma sample (i.e., isolated plasma from incubated whole blood and control plasma) was mixed with 8 volumes of acetonitrile/methanol (9:1, vol/vol) containing the IS. After centrifugation at 3974 × g for 10 min at 4°C, the supernatant was subjected to liquid chromatography/tandem mass spectrometry (LC‐MS/MS) analysis. The blood‐to‐plasma ratio was calculated by dividing the […].

[5] = tested on: anterior pituitary V1B receptor; design: method as in Kamiya et al., 2020; conditions: rats; ref Kamiya et al., 2020; cited from earlier work
[6] = Blood-to-plasma ratio in dog whole blood; type: in vitro ADME; conditions: 1 μmol/L
Description: as §3

[7] = Plasma protein binding by equilibrium dialysis, dog plasma; type: in vitro ADME; conditions: 300 ng/ml
Description: The plasma protein binding of THY1773 in rats, dogs, and humans was evaluated by an equilibrium dialysis method using a 96‐well equilibrium dialysis plate (HTDialysis) with a 12–14 kDa cut‐off dialysis membrane. THY1773 was dissolved in dimethyl sulfoxide, and spiked with rat, dog, or human plasma at a final concentration of 300 ng/ml. An aliquot of plasma containing THY1773 and sodium phosphate buffer (pH 7.4) was added into the donor side and the receiver side of each designated well, respectively. After incubation for 6 h at a rate of 50 oscillation/min at 37°C in an air incubator, an aliquot of each side of each well was collected and mixed with acetonitrile/methanol (9:1, vol/vol) containing the IS. Each sample was centrifuged at 3974 × g for 10 min at 4°C to remove the precipitated proteins, and the resultant supernatants were subjected to LC‐MS/MS analysis. The protein binding (%) was calculated using the Boudinot formula (Boudinot & Jusko, 1984).

[8] = Physicochemical properties (Log P, pKa); conditions: experimental data
Description: TABLE 2 Human PBPK/RO model input parameters for THY1773 | column: Value

[9] = male rats, iv 1 mg/kg, mean (%CV), n=3
[10] = male rats, po 1 mg/kg, mean (%CV), n=3
[11] = human, average over dose range 0.5 to 50 mg
[12] = human, single oral 30 mg, fasted, mean

CC(C)NC(=O)Cn1c(-c2cccc(Cl)c2)nn(-c2ccc(CCN3CCOCC3)cc2)c1=O [THY1773]
AUC0‐∞ [1, 9]: 762 (14.9) h·ng/ml
CLtotal [1, 9]: 1330 (13.7) ml/h/kg
Vdss [1, 9]: 2220 (5.7) ml/kg
t1/2 [1, 9]: 1.38 (2.3) h
F (oral bioavailability) ([1]; male rats, po 1 mg/kg, 1 mg/kg): 46.6%
AUC0‐∞ [1, 10]: 355 (13.5) h·ng/ml
Cmax [1, 10]: 136 (11.8) ng/ml
t1/2 [1, 10]: 1.45 (5.5) h
tmax [1, 10]: 0.833 (34.6) h
CLrenal compared with fu × GFR ([1]; rats): comparable to fu × GFR
CLtotal as share of hepatic blood flow ([1]; rats, single intravenous administration): approximately 30 % of hepatic blood flow
Urinary excretion of unchanged drug ([1]; rats, within 24 h post intravenous dosing): 4.6%
Effect on depressive-like behavior induced by repeated corticosterone injection (depressive-like behavior): significantly improved
Observed CLrenal compared with predicted value ([2]; human): lower than the predicted value
Observed oral blood CL as share of hepatic blood flow ([2]; human): 2.6 % of the hepatic blood flow
Apparent volume of distribution during the terminal phase [2, 11]: 40.6 L
Oral CLtotal [2, 11]: 1.32 L/h
Dose linearity of PK ([2]; human, dose range 0.5–50 mg): linear PK
AUC0‐∞ [2, 12]: 21340 ng·h/mL
CLpo [2, 12]: 1.52 L/h
Cmax [2, 12]: 949 ng/mL
Vdz/F [2, 12]: 43.6 L
tmax ([2]; human, single oral 30 mg, fasted, median): 1.3 h and 1.27 h
Urinary excretion of unchanged drug ([2]; human, within 48 h post oral dosing, average over dose range): 4.2%
Observed human CLtotal/F ([2]; oral, phase 1 study): 0.287 mL/min/kg
Observed human Vdz/F ([2]; oral, phase 1 study): 0.528 L/kg
Concentration ratio of brain to plasma [3]: 0.2
Concentration ratio of pituitary gland to plasma [3]: 4.7
Blood-to-plasma ratio [4]: Theoretical limit (experimental data: 0.54)
Occupancy of anterior pituitary V1B receptor after oral administration [5]: dose‐dependently
Blood-to-plasma ratio [6]: 0.846
Plasma protein binding [7]: 89.6%
Log P [8]: 3.17
pKa ([8]; monoprotic base): 6.85
